# Entries after “also recorded” stand apart in the source; their conditions may differ. Non-standard residues stand in square brackets, D forms with d. Residues, ends and D or L forms follow the SMILES beside them.
# Key:
# [1] = test system: male C57BL/6J wild type mice; assay: Oral delivery (gavage) in ad libitum fed wild type mice: body weight, food and water intake, serum glucose, serum osteocalcin; format: in vivo, mouse
# Method: (§1) Six week-old male C57BL/6J wild type and ob/ob mice were obtained from Jackson Laboratories (Bar Harbor, Me., USA). The animals were housed individually polycarbonate cages fitted with stainless steel wire lids and air filters, and supported on ventilated racks (Thoren Caging Systems, Hazelton, Pa., USA) in the Albany Medical College Animal Resources Facility. The mice were maintained at a constant temperature (24° C.) with lights on from 07:00 to 19:00, and allowed food and water ad libitum for 6 days following arrival. During the test period, mice were fed ad libitum or calorie restricted to 60% of normal. Water intake was allowed ad libitum.
# (§2) On day 1 of the study, and on each day thereafter, a water bottle containing 200 ml of water was added to each cage between 09:00 and 10:00 h. Mice fed ad libitum were given 200 g of pelleted rodent diet (Prolab Rat, Mouse, Hamster 3000, St. Louis, Mo.; 22% crude protein, 5% crude fat, 5% fiber, 6% ash, 2.5% additional minerals) between 09:00 and 10:00 h each day. The mice were weighed once daily between 09:00 and 10:00 h on an Acculab V-333 electronic balance (Cole-Parmer, Vernon Hills, Ill., USA). Calorie-restricted wild type and ob/ob mice received 60% of normal daily intake. Twenty four hours later, food and water remaining in the cages was measured to the nearest 0.1 g and 0.1 ml, respectively. To assure fasting glucose levels on days in which blood glucose was measured, food was removed from the cages between 09:00 and 10:00 h, and replaced immediately before the beginning of the dark cycle.
# (§3) Mouse [D-Leu-4]OB3 was prepared commercially as a C-terminal amide by Bachem (Torrance, Calif., USA). The peptide was dissolved in 0.3% Intravail A3® (Aegis Therapeutics, San Diego, Calif. USA) reconstituted in water, and administered by gavage once daily for 10 days at a concentration of 1 mg/200 μl immediately before the start of the dark cycle. Is has previously been shown that this is the optimum concentration of mouse [D-Leu-4]-OB3 and its related bioactive peptide amides, for regulating energy expenditure, glucose levels, and insulin sensitivity in two genetically obese mouse models (see Rozhayskaya-Arena M. et al., Endocrinology 141:2501-2517 (2000); Grasso P. et al. Regulatory Pep. 101:123-129 (2001); Grasso P. et al., Diabetes 48:2204-2209 (1999), Grasso P. et al., Endocrinology 138:1413-1418 (1997); Grasso P. et al., Regulatory Peptides 85:93-100 (1999); and Grasso P. et al., Diabetes 48:2204-2209 (1999)). Vehicle injected control mice received 200 ul of Intravail A3® only.
# (§4) Initial blood samples were drawn by snipping the end of the tail of each mouse at the beginning of the study (day 0); subsequent samples were obtained by gently removing the scab. Blood was taken 1 h before the onset of the dark period at the beginning of the study, and after 2, 4, 6, 8, and 10 days of treatment. The blood was applied to a test strip, and glucose levels were measured with a Glucometer Elite glucose meter (Bayer, Elkhart, Ind., USA).
# (§5) At the end of the study, the mice were anesthetized with isoflurane (5%) and exsanguinated by cardiac puncture. Euthanasia was confirmed by cervical dislocation. The blood was collected in sterile nonheparinized plastic centrifuge tubes and allowed to stand at room temperature for 1 h. The clotted blood was rimmed from the walls of the tubes with sterile wooden applicator sticks. Individual serum samples were prepared by centrifugation for 30 min at 2600×g in an Eppendorf 5702R, A-4-38 rotor (Eppendorf North America, Westbury, N.Y., USA). The serum samples in each experimental group (n=6) were pooled and stored frozen until assayed for osteocalcin content.
# (§6) Serum osteocalcin in the pooled samples was assayed in triplicate with a mouse osteocalcin ELISA kit obtained from Biomedical Technologies, Inc. (Stoughton, Mass., USA) according to the instructions supplied by the manufacturer. […]
# [2] = test system: male C57BL/6J ob/ob mice; assay: Oral delivery (gavage) in ad libitum fed ob/ob mice: body weight, food and water intake, serum glucose, serum osteocalcin; format: in vivo, mouse
# Method: as §1, §2, §3, §4, §5, §6
# [3] = test system: calorie restricted male C57BL/6J wild type mice; assay: Oral delivery (gavage) in calorie restricted (40%) wild type mice: body weight, serum glucose, serum osteocalcin; format: in vivo, mouse
# Method: as §1, §2, §3, §4, §5, §6
# [4] = test system: calorie restricted male C57BL/6J ob/ob mice; assay: Oral delivery (gavage) in calorie restricted (40%) ob/ob mice: body weight, serum glucose, serum osteocalcin; format: in vivo, mouse
# Method: as §1, §2, §3, §4, §5, §6
# [5] = Observation of toxic side effects in treated animals; format: in vivo; details: treated mice or rats
# [6] = 1 mg/day, 10 days, gavage in Intravail
# [7] = after 10 days, 1 mg/day gavage in Intravail
# [8] = day 0, 1 mg/day, 10 days, gavage in Intravail
# [9] = ob/ob, ad libitum fed, 1 mg/day, 10 days, gavage in Intravail
# [10] = ob/ob, ad libitum fed, 10 days gavage
# [11] = ob/ob, ad libitum fed, oral delivery
structure (smiles),measurement,setting,value
CC(C)C[C@@H](NC(=O)[C@H](CO)NC(=O)[C@H](CS)NC(=O)[C@@H](N)CO)C(=O)N1CCC[C@H]1C(=O)N[C@@H](CCC(N)=O)C(=O)N[C@H](C(N)=O)[C@@H](C)O [mouse [D-Leu-4]-OB3] (H-SCS[dL]PQT-NH2; N-terminus assumed),Body weight (% of initial),[1]; [6],95.6 ± 0.5 % of initial
same,Final body weight,[1]; [6],21.6 ± 0.7 g
same,Serum osteocalcin,[1]; [6],246.6 ± 6.0 ng/mL
same,daily food intake compared to Intravail treated controls,[1]; 10 days gavage,not associated with any significant difference in daily food intake
same,serum glucose after treatment,[1]; 10 days gavage,significantly (P<0.001) reduced
same,serum osteocalcin levels compared to Intravail treated controls,[1]; 10 days gavage,essentially the same; also recorded: slightly elevated
same,water intake compared to Intravail treated controls,[1]; 10 days gavage,essentially the same; also recorded: no significant difference in water intake
same,loss of initial body weight,[1]; after 10 days gavage,4.4%
same,Final serum glucose,[1]; [7],124.5 ± 24.6 mg/dL
same,Initial serum glucose,[1]; day 0,173.3 ± 7.3 mg/dL
same,Initial body weight,[1]; [8],22.6 ± 0.8 g
same,reduction of body weight gain,[1]; oral delivery,4.4%
same,reduction of food intake,[1]; oral delivery,6.8%
same,reduction of serum glucose,[1]; oral delivery,28.2%
same,serum osteocalcin relative to wild type control mice,[2]; ob/ob mice,significantly elevated serum osteocalcin to levels higher than those seen in wild type control mice
same,Body weight (% of initial),[2]; [9],96.3 ± 0.4 % of initial
same,Final body weight,[2]; [9],34.2 ± 0.9 g
same,Serum osteocalcin,[2]; [9],300.5 ± 7.0 ng/mL
same,daily food intake compared to Intravail alone,[2]; [10],significantly (P<0.001) less
same,daily water consumption compared to Intravail treated counterparts,[2]; [10],significantly (P<0.05) less water per day
same,serum glucose after treatment,[2]; [10],"significantly (P<0.001) reduced serum glucose levels, but not to normal levels"
same,loss of initial body weight,"[2]; ob/ob, ad libitum fed, after 10 days gavage",3.7%
same,Final serum glucose,"[2]; ob/ob, ad libitum fed, after 10 days, 1 mg/day gavage in Intravail",380.5 ± 24.3 mg/dL
same,Initial serum glucose,"[2]; ob/ob, ad libitum fed, day 0",503.9 ± 19.6 mg/dL
same,Initial body weight,"[2]; ob/ob, ad libitum fed, day 0, 1 mg/day, 10 days, gavage in Intravail",35.5 ± 0.8 g
same,reduction of body weight gain,[2]; [11],11.6%
same,reduction of food intake,[2]; [11],16.5%
same,reduction of serum glucose,[2]; [11],24.4%
same,reduction of water intake,[2]; [11],22.4%
same,Body weight (% of initial),[3]; [6],90.0 ± 0.8 % of initial
same,Final body weight,[3]; [6],20.3 ± 0.7 g
same,Serum osteocalcin,[3]; [6],216.6 ± 0.4 ng/mL
same,"serum osteocalcin, effect on decrease caused by calorie restriction",[3]; 10 days gavage,prevented this decrease; also recorded: significantly (P<0.001) elevated serum osteocalcin levels to levels Seen in Intravail® treated wild type mice fed ad libitum
same,weight loss compared to calorie restriction with Intravail alone (words),[3]; 10 days gavage,did not enhance this weight loss
same,weight loss compared to calorie restriction with Intravail alone (words),"[3]; 10 days gavage, listed as mouse [D-leu-4]-OB3",essentially the same
same,Final serum glucose,[3]; [7],134.8 ± 14.8 mg/dL
same,Initial serum glucose,[3]; day 0,186.7 ± 36.7 mg/dL
same,Initial body weight,[3]; [8],22.6 ± 0.8 g
same,Body weight (% of initial),[4]; [6],90.0 ± 0.8 % of initial
same,Final body weight,[4]; [6],30.8 ± 0.6 g
same,Serum osteocalcin,[4]; [6],290.1 ± 3.2 ng/mL
same,serum glucose compared to calorie restriction alone,[4]; 10 days gavage,normalized levels; also recorded: significantly (P<0.001) reduced serum glucose levels to levels Seen in wild type mice allowed food ad libitum
same,"serum osteocalcin, effect on decrease caused by calorie restriction",[4]; 10 days gavage,significantly elevated serum osteocalcin levels; also recorded: prevented this decrease
same,weight loss compared to calorie restriction with Intravail alone (words),[4]; 10 days gavage,did not enhance this weight loss; also recorded: essentially the same
same,elevation of serum osteocalcin,[4]; after 10 days of treatment,93.4%
same,Final serum glucose,[4]; [7],176.5 ± 32.8 mg/dL
same,Initial serum glucose,[4]; day 0,480.2 ± 36.7 mg/dL
same,Initial body weight,[4]; [8],34.2 ± 0.4 g
same,toxic side effects (words),[5],lack of toxicity
same,toxic side effects (words),[5]; listed as [D-Leu-4]-OB3,no obvious toxic side effects have ever been observed

# From patent US20110136728A1, “METHODS OF INCREASING BONE FORMATION USING LEPTIN-RELATED PEPTIDES” (priority 2009, published 2011)
